Patent US9850283B2, “Macrocyclic inhibitors of the PD-1/PD-L1 and CD80(B7-1)/PD-L1 protein/protein interactions” (BRISTOL-MYERS SQUIBB COMPANY, priority 2013, dated 2017)
Where two headings read alike, the source gives them in different places. Starred links: 1 amine or outer side, 2 acyl side, 3 side chain; linkers in the order of their positions; H or OH if unused. Positions of bridges follow the written chain, without caps; N, C: chain ends. Non-standard residues stand in square brackets, D forms with d. Residues, ends and D or L forms follow the SMILES beside them. ξ: configuration not given here. *: point of attachment. Phe(3,4,5-F3) = N[C@@H](Cc1cc(F)c(F)c(F)c1)C(=O)O; Phe(3,4-(OMe)2) = COc1ccc(C[C@H](N)C(=O)O)cc1OC; ξTrp(5-F) = NC(Cc1c[nH]c2ccc(F)cc12)C(=O)O; Phe(4-F) = N[C@@H](Cc1ccc(F)cc1)C(=O)O; Pro(4,4-F2) = O=C(O)[C@@H]1CC(F)(F)CN1; Bta = N[C@@H](Cc1csc2ccccc12)C(=O)O; Hyp = O=C(O)[C@@H]1C[C@@H](O)CN1; NMeF = CN[C@@H](Cc1ccccc1)C(=O)O; X4 = O=C([C@H]1COCCN1[*:1])[*:2]; dHyp = O=C(O)[C@H]1C[C@H](O)CN1; AllylGly = C=CC[C@H](N)C(=O)O; NMeNle = CCCC[C@H](NC)C(=O)O; NMeS = CN[C@@H](CO)C(=O)O; NMeA = CN[C@@H](C)C(=O)O; Orn = NCCC[C@H](N)C(=O)O; Dab = NCC[C@H](N)C(=O)O; Bn = c1ccc(C*)cc1; ξC = NC(CS)C(=O)O; Sar = CNCC(=O)O

Legend:
Human PD-L1/PD-1 = target: T1, Human PD-L1/PD-1 (Homo sapiens, UniProt Q9NZQ7); assay: HTRF PD-1-Ig/PD-L1-His binding assay (human PD-L1); details: cluster symbol; read-out: HTRF IC50 cluster
T1 construct: made in house; host or cells: HEK293T
T1 sequence (Q9NZQ7 with tags, fused parts or gaps): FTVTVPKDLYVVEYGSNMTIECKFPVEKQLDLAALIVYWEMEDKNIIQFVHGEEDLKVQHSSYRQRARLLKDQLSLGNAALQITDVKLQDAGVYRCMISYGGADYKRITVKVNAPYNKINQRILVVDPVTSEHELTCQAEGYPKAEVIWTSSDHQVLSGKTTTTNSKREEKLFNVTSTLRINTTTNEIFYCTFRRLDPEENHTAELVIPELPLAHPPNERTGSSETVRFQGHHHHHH
Method in brief: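 Ig- and His-fused extracellular PD-1/PD-L1 binding in BSA/Tween-20 dPBS. HTRF with Eu anti-Ig (1 nM final) and APC anti-His (20 nM final).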

[1] = target: T2, LK35.2-hPD-L1 cells / PE-labeled PD-1-Ig (Homo sapiens, UniProt Q9NZQ7); assay: LK35.2-hPD-L1 cell binding high-content screening assay; type: cell-based; details: cluster symbol, read-out: CBA IC50 cluster
T2 construct: expressed in transfected cells; host or cells: LK35.2 mouse B cell line
T2 sequence (Q9NZQ7 19-290): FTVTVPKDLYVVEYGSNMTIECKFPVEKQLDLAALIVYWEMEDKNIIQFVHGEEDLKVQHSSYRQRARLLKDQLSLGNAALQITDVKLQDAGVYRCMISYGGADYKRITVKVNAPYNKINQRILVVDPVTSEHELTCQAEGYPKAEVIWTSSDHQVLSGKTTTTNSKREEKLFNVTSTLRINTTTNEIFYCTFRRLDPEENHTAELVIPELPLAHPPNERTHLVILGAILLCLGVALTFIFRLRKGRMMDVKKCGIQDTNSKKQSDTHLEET
Method in brief: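 Fluorescent PD-1-Ig binding to PD-L1-expressing LK35.2 cells, imaged after washing. Conditions: 1 nM PE-PD-1-Ig, 37 °C, 1 h, RPMI with 10% fetal calf serum.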

[2] = cell line of CBA not given (LK35.2-hPD-L1 or 293T-hPD-L1)
[3] = cell binding assay, cell line not given

| IC50 (Human PD-L1/PD-1) [nM] | IC50 [1, 2] [nM] | IC50 [1, 3] [nM] | Compound |
| --- | --- | --- | --- |
| 6.76 to 30.3 | 4.78 to 72.9 | – | CCCC[C@H]1C(=O)N(C)[C@@H](CCCC)C(=O)N[C@@H](CCCN)C(=O)N[C@H](C(=O)NCC(N)=O)CSCC(=O)N[C@@H](Cc2ccccc2)C(=O)N(C)[C@@H](C)C(=O)N[C@@H](CC(N)=O)C(=O)N2CCC[C@H]2C(=O)N[C@@H](Cc2cnc[nH]2)C(=O)N[C@@H](CC(C)C)C(=O)N(C)CC(=O)N[C@@H](Cc2c[nH]c3ccccc23)C(=O)N[C@@H](CO)C(=O)N[C@@H](Cc2c[nH]c3ccccc23)C(=O)N1C [Example 1055] ({CH2CO}-F[NMeA]NPHL[Sar]WSW[NMeNle][NMeNle][Orn]CG-NH2; thioether N-14) |
| 0.385 to 6.74 | – | 4.78 to 72.9 | CCCC[C@H]1C(=O)N(C)[C@@H](CCCC)C(=O)N[C@@H](CCCNC(=N)N)C(=O)N[C@H](C(=O)NCC(N)=O)CSCC(=O)N[C@@H](Cc2ccc(O)cc2)C(=O)N(C)[C@@H](C)C(=O)N[C@@H](CCN)C(=O)N2CCC[C@H]2C(=O)N[C@@H](Cc2c[nH]cn2)C(=O)N[C@@H](CCC(=O)O)C(=O)N2C[C@H](O)C[C@H]2C(=O)N[C@@H](Cc2c[nH]c3ccccc23)C(=O)N[C@@H](CCN)C(=O)N[C@@H](Cc2c[nH]c3ccccc23)C(=O)N1C [Example 5086] ({CH2CO}-Y[NMeA][Dab]PHE[Hyp]W[Dab]W[NMeNle][NMeNle]RCG-NH2; thioether N-14) |
| > 30.5 | – | > 74.3 | CCCC[C@H]1C(=O)N(C)CC(=O)N[C@@H](CC(=O)O)C(=O)N[C@@H](C(C)C)C(=O)N[C@@H](Cc2ccc(F)cc2)C(=O)N[C@@H](Cc2ccc(O)cc2)C(=O)N(C)CC(=O)N[C@@H](Cc2c[nH]c3ccccc23)C(=O)N[C@@H](Cc2ccc(O)cc2)C(=O)N[C@@H](CC(C)C)C(=O)N[C@H](C(=O)NCC(N)=O)CSCC(=O)N[C@@H](Cc2ccccc2)C(=O)N(C)[C@@H](Cc2ccccc2)C(=O)N1C [Example 3570] ({CH2CO}-F[NMeF][NMeNle][Sar]DV[Phe(4-F)]Y[Sar]WYLCG-NH2; thioether N-13) |
| > 30.5 | – | 4.78 to 72.9 | CC(C)C[C@@H]1NC(=O)[C@H](Cc2cnc[nH]2)NC(=O)[C@@H]2CCCN2C(=O)[C@H](CC(N)=O)NC(=O)[C@H](C)N(C)C(=O)[C@H](Cc2ccccc2)NC(=O)CSC[C@@H](C(=O)NCC(N)=O)NC(=O)[C@H](CCCNC(=N)N)NC(=O)[C@H](COCc2ccccc2)N(C)C(=O)[C@H](C)N(C)C(=O)[C@H](Cc2c[nH]c3ccccc23)NC(=O)[C@H](CO)NC(=O)[C@H](Cc2c[nH]c3ccccc23)NC(=O)CN(C)C1=O [Example 6015] ({CH2CO}-F[NMeA]NPHL[Sar]WSW[NMeA][NMeS](Bn)RCG-NH2; thioether N-14) |
| > 30.5 | > 74.3 | – | CCCC[C@H]1C(=O)N(C)[C@@H](CCCC)C(=O)N[C@@H](CCCNC(=N)N)C(=O)N[C@H](C(=O)NCC(N)=O)CSCC(=O)N[C@@H](Cc2ccccc2)C(=O)N(C)[C@@H](C)C(=O)N[C@@H](CC(N)=O)C(=O)N2CCC[C@H]2C(=O)N[C@@H](Cc2cnc[nH]2)C(=O)N[C@@H](CC(C)C)C(=O)N(C)CC(=O)N[C@@H](Cc2ccc(OC)c(OC)c2)C(=O)N[C@@H](CO)C(=O)N[C@@H](Cc2c[nH]c3ccccc23)C(=O)N1C [Example 1080] ({CH2CO}-F[NMeA]NPHL[Sar][Phe(3,4-(OMe)2)]SW[NMeNle][NMeNle]RCG-NH2; thioether N-14) |
| 6.76 to 30.3 | – | 0.158 to 4.71 | CCCC[C@H]1C(=O)N(C)[C@@H](CCCC)C(=O)N[C@@H](CCCNC(=N)N)C(=O)N[C@H](C(=O)NCC(N)=O)CSCC(=O)N[C@@H](Cc2ccc(O)cc2)C(=O)N(C)[C@@H](C)C(=O)N[C@@H](CC(N)=O)C(=O)N2CCC[C@H]2C(=O)N[C@@H](Cc2cnc[nH]2)C(=O)N[C@@H](CCN)C(=O)N2C[C@H](O)C[C@H]2C(=O)N[C@@H](Cc2c[nH]c3ccccc23)C(=O)N[C@@H](CO)C(=O)N[C@@H](Cc2c[nH]c3ccccc23)C(=O)N1C [Example 5022] ({CH2CO}-Y[NMeA]NPH[Dab][Hyp]WSW[NMeNle][NMeNle]RCG-NH2; thioether N-14) |
| 0.385 to 6.74 | – | 0.158 to 4.71 | CCCC[C@H]1C(=O)N(C)[C@@H](CCCC)C(=O)N[C@@H](CCCNC(=N)N)C(=O)NC(C(=O)N[C@@H](CO)C(N)=O)CSCC(=O)N[C@@H](Cc2ccc(O)cc2)C(=O)N(C)[C@@H](C)C(=O)N[C@@H](CC(N)=O)C(=O)N2CCC[C@H]2C(=O)N[C@@H](CO)C(=O)N[C@@H](CC(C)C)C(=O)N2C[C@H](O)C[C@H]2C(=O)N[C@@H](Cc2c[nH]c3ccccc23)C(=O)N[C@@H](CO)C(=O)N[C@@H](Cc2csc3ccccc23)C(=O)N1C (stereo partly shown) [Example 9075] ({CH2CO}-Y[NMeA]NPSL[Hyp]WS[Bta][NMeNle][NMeNle]R[ξC]S-NH2; thioether N-14) |
| 0.385 to 6.74 | – | 0.158 to 4.71 | CCCC[C@H]1C(=O)N(C)[C@@H](CCCC)C(=O)N[C@@H](CCCNC(=N)N)C(=O)NC(C(=O)NCC(N)=O)CSCC(=O)N[C@@H](Cc2ccc(O)cc2)C(=O)N(C)[C@@H](C)C(=O)N[C@@H](CC(N)=O)C(=O)N2CCC[C@H]2C(=O)N[C@@H](Cc2cnc[nH]2)C(=O)N[C@@H](CO)C(=O)N2CCC[C@H]2C(=O)N[C@@H](Cc2c[nH]c3ccccc23)C(=O)N[C@@H](CO)C(=O)N[C@@H](Cc2c[nH]c3ccccc23)C(=O)N1C (stereo partly shown) [Example 9067] ({CH2CO}-Y[NMeA]NPHSPWSW[NMeNle][NMeNle]R[ξC]G-NH2; thioether N-14) |
| 0.385 to 6.74 | – | 4.78 to 72.9 | CCCC[C@H]1C(=O)N(C)[C@@H](CCCC)C(=O)N[C@@H](CCC(=O)O)C(=O)N[C@H](C(=O)NCC(N)=O)CSCC(=O)N[C@@H](Cc2ccc(O)cc2)C(=O)N(C)[C@@H](C)C(=O)N[C@@H](CC(=O)O)C(=O)N2CCC[C@H]2C(=O)N[C@@H](Cc2c[nH]cn2)C(=O)N[C@@H](CCCCN)C(=O)N2C[C@H](O)C[C@H]2C(=O)N[C@@H](Cc2c[nH]c3ccccc23)C(=O)N[C@@H](CO)C(=O)N[C@@H](Cc2c[nH]c3ccccc23)C(=O)N1C [Example 5098] ({CH2CO}-Y[NMeA]DPHK[Hyp]WSW[NMeNle][NMeNle]ECG-NH2; thioether N-14) |
| > 30.5 | 4.78 to 72.9 | – | CCCC[C@H]1C(=O)N(C)[C@@H](CCCC)C(=O)N[C@@H](CCCNC(=N)N)C(=O)N[C@H](C(=O)NCC(N)=O)CSCC(=O)N[C@@H](Cc2ccccc2)C(=O)N(C)[C@@H](C)C(=O)N[C@@H](CC(N)=O)C(=O)N2CCC[C@H]2C(=O)N[C@@H](Cc2cnc[nH]2)C(=O)N[C@@H](CC(C)C)C(=O)N(C)CC(=O)N[C@@H](Cc2c[nH]c3ccccc23)C(=O)N[C@@H](CO)C(=O)NC(Cc2c[nH]c3ccc(F)cc23)C(=O)N1C (stereo partly shown) [Example 1039] ({CH2CO}-F[NMeA]NPHL[Sar]WS[ξTrp(5-F)][NMeNle][NMeNle]RCG-NH2; thioether N-14) |
| 0.385 to 6.74 | – | 4.78 to 72.9 | C=CC[C@@H]1NC(=O)[C@H](Cc2c[nH]c3ccccc23)NC(=O)[C@@H]2CCCN2C(=O)[C@H](CC(C)C)NC(=O)[C@H](Cc2cnc[nH]2)NC(=O)[C@@H]2CCCN2C(=O)[C@H](CC(N)=O)NC(=O)[C@H](C)N(C)C(=O)[C@H](Cc2ccc(O)cc2)NC(=O)CSC[C@@H](C(=O)NCC(N)=O)NC(=O)[C@H](C)NC(=O)[C@H](CCCC)N(C)C(=O)[C@H](CCCC)N(C)C(=O)[C@H](Cc2c[nH]c3ccccc23)NC1=O [Example 7020] ({CH2CO}-Y[NMeA]NPHLPW[AllylGly]W[NMeNle][NMeNle]ACG-NH2; thioether N-14) |
| 0.385 to 6.74 | – | 0.158 to 4.71 | CCCC[C@H]1C(=O)N2C[C@@H](O)C[C@@H]2C(=O)N[C@@H](CC(N)=O)C(=O)N[C@@H](C(C)C)C(=O)N(C)[C@@H](Cc2ccccc2)C(=O)N[C@@H](CCC(N)=O)C(=O)N2CCOC[C@@H]2C(=O)N[C@@H](Cc2c[nH]c3ccccc23)C(=O)N[C@@H](Cc2ccc(O)cc2)C(=O)N[C@@H](CCCN)C(=O)N[C@H](C(=O)NCC(N)=O)CSCC(=O)N[C@@H](Cc2cc(F)c(F)c(F)c2)C(=O)N(C)[C@@H](Cc2ccccc2)C(=O)N1C [Example 3605] ({CH2CO}-[Phe(3,4,5-F3)][NMeF][NMeNle][dHyp]NV[NMeF]Q[X4]WY[Orn]CG-NH2; thioether N-13) |
| > 30.5 | > 74.3 | – | CCCC[C@H]1C(=O)N(C)[C@@H](CCCC)C(=O)N[C@@H](CCCNC(=N)N)C(=O)N[C@H](C(=O)NCC(N)=O)CSCC(=O)N[C@@H](Cc2ccccc2)C(=O)N(C)[C@@H](C)C(=O)N[C@@H](CC(N)=O)C(=O)N2CC(F)(F)C[C@H]2C(=O)N[C@@H](Cc2cnc[nH]2)C(=O)N[C@@H](CC(C)C)C(=O)N(C)CC(=O)N[C@@H](Cc2c[nH]c3ccccc23)C(=O)N[C@@H](CO)C(=O)N[C@@H](Cc2c[nH]c3ccccc23)C(=O)N1C [Example 1112] ({CH2CO}-F[NMeA]N[Pro(4,4-F2)]HL[Sar]WSW[NMeNle][NMeNle]RCG-NH2; thioether N-14) |
| 6.76 to 30.3 | > 74.3 | – | CCCC[C@H]1C(=O)N(C)[C@@H](CCCC)C(=O)N[C@@H](C)C(=O)N[C@H](C(=O)NCC(=O)O)CSCC(=O)N[C@@H](Cc2ccc(O)cc2)C(=O)N(C)[C@@H](C)C(=O)N[C@@H](CC(N)=O)C(=O)N2CCC[C@H]2C(=O)N[C@@H](Cc2cnc[nH]2)C(=O)N[C@@H](CC(C)C)C(=O)N[C@@H](CCCN)C(=O)N[C@@H](Cc2c[nH]c3ccccc23)C(=O)N[C@@H](CO)C(=O)N[C@@H](Cc2c[nH]c3ccccc23)C(=O)N1C [Example 1154] |
